Test results taken from patent US20240358722A1, “METHODS OF ADMINISTERING FEDRATINIB” (Impact Biomedicines, Inc., priority 2021, published 2024).
Counter-ions that a name gives are not always drawn.

Assays:
[1] = Phase 1 crossover relative bioavailability study, Part 1: fedratinib plasma PK; format: in vivo, human; conditions: for AUC0-t / Cmax: plasma
Method: (§1) An open-label, single-site, 2-part crossover study will be conducted in healthy adult subjects. This study will evaluate the RBA of 400 mg fedratinib when administered orally as contents of capsules dispersed in a nutritional supplement or via NG tube or administered orally as intact capsules with a nutritional supplement as a divided dose (200 mg BID) in comparison to intact capsules with a nutritional supplement. Each study part will consist of a randomized, multiple-sequence, open-label design. The study parts can be run in any order or in parallel. Subjects may participate in 1 part only. Each study part will consist of Screening, a Treatment phase (including baseline), and a Follow-up phone call. There will be a washout period of at least 12 days between each dose of fedratinib.
(§2) Part 1 will consist of a randomized, 2-period, 2-sequence, open-label design. Subjects will be screened for eligibility. Subjects who meet all inclusion criteria and none of the exclusion criteria will return to the study center on Day-1 for protocol-specified assessments and the start of domiciling; subjects will remain domiciled at the study center throughout both study periods.
(§3) On the evening before each dosing, all subjects will begin an overnight fast of at least 10 hours prior to dosing. No food or beverages (except water and any nutritional supplement administered with IP) will be allowed for at least 4 hours after dosing. Water is allowed as desired except for 1 hour before and 1 hour after each dosing. Each dose, with the exception of Treatment 2B, will be administered orally with approximately 240 mL noncarbonated, room temperature water. Dose modifications or interruptions are not permissible in this study.
Each subject will receive the following treatments across 2 study periods: • Treatment 1A=oral administration of a single 400-mg dose of fedratinib (4×100-mg capsules) with a nutritional supplement (reference) • Treatment 1B=oral administration of a single 400-mg dose of fedratinib with contents of 4×100-mg capsules dispersed in a nutritional supplement (test)
(§4) All planned doses will be administered with a commercially available nutritional supplement (e.g., Ensure Plus® or Boost Plus®). The chosen nutritional supplement will be used throughout the study. The volume of nutritional supplement to be administered with each dose will be (e.g., approximately 180 mL).
(§5) Blood samples (approximately 3 mL each) for the measurement of fedratinib concentrations in plasma will collected at the following time points: • Treatment 1A, 1B, 2A and 2B: pre dose (0 hour) and at 0.5, 1, 1.5, 2, 3, 4, 6, 8, 12, 24, 48, 72, 120, 168, 192, and 240 hours post dose. • Treatment 2C: pre dose (0 hour) and at 0.5, 1, 1.5, 2, 3, 4, 6, 8, 12 (pre dose of the second dose), 12.5, 13, 13.5, 14, 15, 16, 18, 24, 48, 72, 120, 168, 192, and 240 hours post dose of the first dose.
(§6) Fedratinib plasma PK concentrations will be measured using a validated liquid chromatography tandem mass spectrometry assay
Fedratinib plasma PK parameters will be calculated using noncompartmental methods. The following key PK parameters will be estimated as allowed by the data: • Maximum observed plasma concentration (Cmax) • Area under the plasma concentration-time curve (AUC) from time zero to the last
To estimate the RBA for Treatments 1B in comparison with Treatment 1A, an ANOVA with treatment, period, and sequence as fixed effects, and subject nested within sequence as a random effect will be performed on the natural log-transformed Cmax, AUC (0-T), and AUC (INF). The geometric means along with ratios of the geometric means (test/reference) and associated 90% confidence intervals will be presented.

[2] = Phase 1 crossover relative bioavailability study, Part 2: fedratinib plasma PK; format: in vivo, human; conditions: for AUC0-∞: geometric mean, one participant excluded (pAUCe >20%); for AUC0-t / Cmax: n = 30, geometric mean, plasma
Method: as §1
as §2, with “Part 2” for “Part 1”, “randomized, 3-period, 6-sequence,” for “randomized, 2-period, 2-sequence,”, “throughout all” for “throughout both”
as §3
Each subject will receive the following treatments across 3 study periods: • Treatment 2A=oral administration of a single 400-mg dose of fedratinib (4×100-mg capsules) with a nutritional supplement (reference) • Treatment 2B=a single 400-mg dose of fedratinib, administered via NG tube as contents from 4×100-mg capsules dispersed into a nutritional supplement (test) • Treatment 2C=oral administration of 400-mg fedratinib with a nutritional supplement, given as a divided dose (i.e., BID [2×100-mg capsules each]) (test)
Prior to administration of Treatment 2B, a nasogastric tube will be placed and an X-ray(s) will be performed to confirm correct placement of the nasogastric tube. Following administration of Treatment 2B, the nasogastric tube will be flushed with a volume of sterile water for irrigation equal to approximately 60 mL. Lidocaine gel or a suitable therapeutic equivalent may be used to reduce participant discomfort during the nasogastric tube insertion procedure. The timing from start of the nasogastric tube placement to dosing will be up to 4 hours. Actual time of dose administration will be referred to as “0 hour.”
as §4, §5, §6
Fedratinib plasma PK parameters will be calculated using noncompartmental methods. […]

[3] = Safety and tolerability in the Phase 1 study; format: in vivo, human; conditions: healthy adult subjects, fedratinib 400 mg, Parts 1 and 2
Description: During the study, blood samples will be collected at prespecified times for PK. Subject safety will be monitored throughout the study. The study will be conducted in compliance with the International Council on Harmonization (ICH) of Technical Requirements for Registration of Pharmaceuticals for Human Use/Good Clinical Practice (GCP) and applicable regulatory requirements.

[4] = Effect of meals on fedratinib pharmacokinetics; format: in vivo, human; conditions: high-fat, high-calorie meal (approx. 815 calories, 52% fat) and low-fat, low-calorie meal (approx. 162 calories, 6% fat)
Method: (§7) Thus, fedratinib can be taken with or without regard to food. Moreover, the most frequently reported gastrointestinal (GI)-related treatment-emergent adverse events, such as nausea and vomiting, are less frequent in the fed state (62.5% and 16.7%,) than in the fasting state (87.5% and 66.7%) in subjects receiving a 500 mg fedratinib. Therefore, administration in the fed state, i.e., with nutritional supplement can reduce the incidence of nausea and vomiting.

[5] = GI-related treatment-emergent adverse events, fed vs fasting state; format: in vivo, human; conditions: subjects receiving 500 mg fedratinib
Method: as §7

[6] = Population pharmacokinetics analysis of cumulative data from 452 patients; format: in vivo, human; conditions: age 20 to 95 years, body weight 40 to 135 kg
STAT3/STAT5 = conditions: patient-derived cell lines expressing JAK2V617F and cells engineered to express WT JAK2 or JAK2V617F; cited from earlier work
[7] = system: patient-derived cell lines expressing JAK2V617F and cells engineered to express WT JAK2 or JAK2V617F; conditions: cited from earlier work
JAK2V617F-driven MPNs = conditions: mouse models of JAK2V617F-driven MPNs; cited from earlier work
[8] = Treatment 1A: fedratinib 400 mg oral capsules with nutritional supplement, n = 27, geometric mean
[9] = Treatment 1B (dispersed in nutritional supplement) vs Treatment 1A (intact capsules), 400 mg single dose
[10] = Treatment 1B: fedratinib 400 mg dispersed in supplement, oral, n = 27, geometric mean
[11] = Treatment 2A: fedratinib 400 mg oral capsules with nutritional supplement
[12] = Treatment 2B (via NG tube) vs Treatment 2A (capsules orally), 400 mg single dose
[13] = Treatment 2B: fedratinib 400 mg in supplement via NG tube
[14] = Treatment 2C (divided dose) vs Treatment 2A (single dose)
[15] = Treatment 2C: fedratinib 2 × 200 mg capsules, divided dose

Structure (SMILES): Cc1cnc(Nc2ccc(OCCN3CCCC3)cc2)nc1Nc1cccc(S(=O)(=O)NC(C)(C)C)c1 [fedratinib, N-tert-butyl-3-[(5-methyl-2-{[4-(2-pyrrolidin-1-ylethoxy)phenyl]amino}pyrimidin-4-yl)amino] benzenesulfonamide dihydrochloride monohydrate]
- AUC0-∞ ([1]; Treatment 1A: fedratinib 400 mg oral capsules with nutritional supplement, geometric mean, one participant excluded (pAUCe >20%)): 22260 ng·h/mL
- AUC0-t [1, 8]: 20127 ng·h/mL
- Cmax [1, 8]: 1319 ng/mL
- ratio of geometric means (test/reference), AUC (0-T) [1, 9]: 102%
- ratio of geometric means (test/reference), AUC (INF) [1, 9]: 103%
- ratio of geometric means (test/reference), Cmax [1, 9]: 108%
- AUC0-∞ [1, 10]: 22838 ng·h/mL
- AUC0-t [1, 10]: 20598 ng·h/mL
- Cmax [1, 10]: 1425 ng/mL
- differences in exposure to fedratinib compared to a single dose of 4×100 mg capsules administered orally ([2]; 400 mg, healthy adult participants, with nutritional supplement, via NG tube, or divided capsule dose): no significant differences
- AUC0-∞ [2, 11]: 24963 ng·h/mL
- AUC0-t [2, 11]: 22683 ng·h/mL
- Cmax [2, 11]: 1388 ng/mL
- ratio of geometric means between test and reference, AUC (0-T) [2, 12]: 84%
- ratio of geometric means between test and reference, AUC (INF) [2, 12]: 85%
- ratio of geometric means between test and reference, Cmax [2, 12]: 90%
- AUC0-∞ [2, 13]: 21334 ng·h/mL
- AUC0-t [2, 13]: 19111 ng·h/mL
- Cmax [2, 13]: 1246 ng/mL
- ratio of geometric means between test and reference, AUC (0-T) [2, 14]: 84%
- ratio of geometric means between test and reference, AUC (INF) [2, 14]: 85%
- ratio of geometric means between test and reference, Cmax [2, 14]: 46%
- AUC0-∞ [2, 15]: 21304 ng·h/mL
- AUC0-t [2, 15]: 19002 ng·h/mL
- Cmax [2, 15]: 641.4 ng/mL
- safety signals or treatment-emergent serious adverse events [3]: No new safety signals or treatment-emergent serious adverse events were reported
- effect on the pharmacokinetics of fedratinib of administration with a meal [4]: No clinically meaningful effect
- frequency of nausea (GI-related treatment-emergent adverse event) ([5]; fasting state): 87.5%
- frequency of vomiting (GI-related treatment-emergent adverse event) ([5]; fasting state): 66.7%
- frequency of nausea (GI-related treatment-emergent adverse event) ([5]; fed state): 62.5%
- frequency of vomiting (GI-related treatment-emergent adverse event) ([5]; fed state): 16.7%
- effect on fedratinib PK of age, race, sex, body weight, mild or moderate hepatic impairment, mild renal impairment [6]: no clinically meaningful effect
- phosphorylation of STAT3/STAT5 (STAT3/STAT5): reduced
- apoptosis [7]: increased
- cell proliferation [7]: inhibited
- disease-associated symptoms, including leukopenia, anemia, splenomegaly, and fibrosis (JAK2V617F-driven MPNs): improved
- phosphorylation of STAT⅗ (JAK2V617F-driven MPNs): blocked
- survival (JAK2V617F-driven MPNs): increased
